# Results taken from article PMC8631675, “Neuroprotective effects of some epigenetic modifying drugs’ on Chlamydia pneumoniae-induced neuroinflammation: A novel model” (PLoS ONE, 2021).
# Where two headings read alike, the source gives them in different places.
# Legend:
# HMC3 microglia cells = assay: Cell proliferation (cytotoxicity) analysis with xCELLigence, HMC3; type: cell-based, human
# Protocol: (§1) Cell proliferation analysis was performed with xCELLigence Real-Time Cell Analysis System to assess TSA, RG108, givinostat, and rifampin concentrations for use in both models. Differentiated SH-SY5Y and HMC3 microglia cells were seeded at a 5x10^3 density per well and incubated 24 h until CI values reached a log phase. The system stopped at the end of 24 h, 100, 10 and 1 μM TSA, givinostat, RG108 and rifampin were applied on current media and the cell viability was tracked. […] Simultaneously, slope plots were drawn using the CI values at 24 and 48 hours, and the statistical significance of the values discovered by assuming the average CI values of the control wells to be 100% was calculated.
# [1] = system: differentiated SH-SY5Y cells; assay: Cell proliferation (cytotoxicity) analysis with xCELLigence, SH-SY5Y; type: cell-based, human
# Protocol: as §1
# [2] = system: differentiated SH-SY5Y cells; assay: Cell viability against Aβ-induced neurotoxicity, xCELLigence; type: cell-based, human; settings: 24 h pretreatment (drugs 100 nM; CFS 1 μg/ml + IFN-γ; LPS 100 ng/ml + IFN-γ), then 5 μM Aβ (1–42) aggregates 24 h
# Protocol: Pathological deterioration in AD is mainly associated with overproduction of the Aβ peptide and the Aβ (1–42) variant is the toxic form that is more predominant in Alzheimer’s patients. In this study, a modified oligomeric Aβ (1–42) neurotoxicity analysis protocol was applied in order to elucidate the effects of treatment groups on SH-SY5Y cell viability in the presence of Aβ [56]. In order to model Aβ-induced neurotoxicity in vitro, an oligomeric form of the Aβ1–42 peptide was prepared by diluting with ice-cold Ham’s F12 Nutrient Mixture medium dissolved in PBS containing 0.02 M NaOH at a final concentration of 50 μM and kept in a 37°C incubator for 7 days to form peptide aggregates prior to the experiments. 5x10^3 SH-SY5Y cells were differentiated inside the xCELLigence instrument for 5 days and treated with 100 nM TSA, RG108, givinostat, rifampin; 100 ng/ml LPS+IFN-ɣ or 1 μg/ml CFS+IFN-ɣ for 24 h in order to evaluate neuroprotection. The co-culture was performed in the same way as the neuroinflammation model. Neurotoxicity was obtained instead of neuroinflammation by diluting to 5 μM with fresh medium and adding Aβ1–42 aggregates to the wells for 24 h in 100 μl of medium. Cell viability data was then monitored for 24 h and analyzed within the instrument.
# [3] = system: differentiated SH-SY5Y cells; assay: Annexin V-PI staining of Aβ-induced cell death, flow cytometry; type: cell-based, human; settings: pretreatment (drugs 100 nM; LPS 100 ng/ml + IFN-γ; CFS 1 μg/ml + IFN-γ) + 5 μM Aβ 24 h
# Protocol: To determine neuronal apoptosis associated with Aβ exposure, 25x10^3 differentiated SH-SY5Y cells were seeded in 24-well plates and Aβ was applied. After 24 h, cells were trypsinized and staining was performed according to the CF 488A Annexin V and PI Apoptosis Kit (Biotium, USA, Cat. No: 30061) protocol. After washing the cells with 1xPBS, the working solution was prepared by diluting the PI with Annexin V binding buffer included in the kit. 5 μl Annexin V and 2 μl PI working solution were added to the centrifuge tubes and binded with 100 μl Annexin V binding buffer. After the samples were incubated for 30 minutes on ice and in the dark, 400 μl of Annexin V binding buffer was added to each tube and the samples were measured and analyzed in a BD Accuri™ C6 flow cytometry device.
# SH-SY5Y cells = assay: Total ROS/Superoxide detection; type: cell-based, human
# Protocol: The Total ROS/Superoxide Detection Kit (ENZ-51010, Enzo) was used according to the kit process for evaluating the protective effects of the treatment groups on SH-SY5Y cells seeded at a 2x10^4 density per well in 96-well plates and Aβ was applied. ROS inhibitor N-acetyl cysteine (NAC) was applied at 5 mM concentration to negative control groups 30 minutes before the experiment and after incubation, 100 μL of “ROS/Superoxide Detection Solution” was added to the wells in the kit. The same procedure was done without the application of ROS inhibitor. Fluorometric analysis of stained cells was analyzed with Cytation 3 Cell Imaging Multi-Mode Reader (BioTek) using 490/525 nm and 550/620 nm filter sets.
# motor neurons = system: motor neurons; set-up: method as in PMID 23900692; settings: inhibiting DNMT catalytic activity; cited from earlier work
compound,measurement,setting,value
O=C(O)C(Cc1c[nH]c2ccccc12)N1C(=O)c2ccccc2C1=O (stereo not shown) [RG108],Reduction of HMC3 cell viability compared to the control group,"HMC3 microglia cells; 10 μM, 24 hours",3.12%
same,Reduction of HMC3 cell viability compared to the control group,"HMC3 microglia cells; 10 μM, 48 hours",8.33%
same,Reduction of HMC3 cell viability compared to the control group,"HMC3 microglia cells; 100 μM, 24 hours",43.26%
same,Reduction of HMC3 cell viability compared to the control group,"HMC3 microglia cells; 100 μM, 48 hours",57.56%
same,IC50,"HMC3 microglia cells; from CI values at 24th hour, 1, 10 and 100 μM tested, read-out: IC50 Values 24h HMC3",> 400 µM
same,IC50,"HMC3 microglia cells; from CI values at 48th hour, 1, 10 and 100 μM tested, read-out: IC50 Values 48h HMC3",> 400 µM
same,Reduction of differentiated SH-SY5Y cell viability,"[1]; 1 μM, 24 hours",21.98%
same,Reduction of differentiated SH-SY5Y cell viability,"[1]; 1 μM, 48 hours",15.47%
same,Reduction of differentiated SH-SY5Y cell viability,"[1]; 10 μM, 24 hours",43.73%
same,Reduction of differentiated SH-SY5Y cell viability,"[1]; 10 μM, 48 hours",33.89%
same,Reduction of differentiated SH-SY5Y cell viability,"[1]; 100 μM, 24 hours",64.03%
same,Reduction of differentiated SH-SY5Y cell viability,"[1]; 100 μM, 48 hours",53.43%
same,IC50,"[1]; from CI values at 24th hour, 1, 10 and 100 μM tested, read-out: IC50 Values 24h SH-SY5Y",1.49 µM
same,IC50,"[1]; from CI values at 48th hour, 1, 10 and 100 μM tested, read-out: IC50 Values 48h SH-SY5Y",9.6 µM
same,CI values compared to the control group,[2],120.7%
same,Necrotic effect (Q5-UL),[3]; control 1.6%,6.6%
same,Apoptotic effect (early apoptosis + late apoptosis),[3]; control 1.9%,4.3%
same,Percentage of living cells (Live),[3]; control 96.5%,89.1%
same,"Increase of total amount of ROS compared to the control group, with NAC","SH-SY5Y cells; 30 minutes NAC 5 mM, treated (drugs 100 nM; LPS 100 ng/ml; CFS 1 μg/ml, with IFN-γ) prior to Aβ exposure",4.29%
same,Decrease of total ROS amount according to the Aβ group,"SH-SY5Y cells; cells treated (drugs 100 nM; LPS 100 ng/ml; CFS 1 μg/ml, with IFN-γ) before exposure to Aβ, without NAC",52.61%
same,Decrease of total amount of ROS compared to the control group,"SH-SY5Y cells; cells treated with compounds (100 nM) before exposure to Aβ, without NAC",9.03%
same,Effect on motor neurons,motor neurons,protect motor neurons from excessive DNA methylation and apoptosis
